Experimental data reported in BindingDB's records for doi:10.7270/Q2M32T6M (Vanderbilt Screening Center for GPCRs, Ion Channels and …, 2009).
pEC50: −log10 of the molar value.

Molecular target: T1, Solute carrier family 12 member 5 (Homo sapiens, UniProt Q9H2X9)
T1 sequence (Q9H2X9 whole entry): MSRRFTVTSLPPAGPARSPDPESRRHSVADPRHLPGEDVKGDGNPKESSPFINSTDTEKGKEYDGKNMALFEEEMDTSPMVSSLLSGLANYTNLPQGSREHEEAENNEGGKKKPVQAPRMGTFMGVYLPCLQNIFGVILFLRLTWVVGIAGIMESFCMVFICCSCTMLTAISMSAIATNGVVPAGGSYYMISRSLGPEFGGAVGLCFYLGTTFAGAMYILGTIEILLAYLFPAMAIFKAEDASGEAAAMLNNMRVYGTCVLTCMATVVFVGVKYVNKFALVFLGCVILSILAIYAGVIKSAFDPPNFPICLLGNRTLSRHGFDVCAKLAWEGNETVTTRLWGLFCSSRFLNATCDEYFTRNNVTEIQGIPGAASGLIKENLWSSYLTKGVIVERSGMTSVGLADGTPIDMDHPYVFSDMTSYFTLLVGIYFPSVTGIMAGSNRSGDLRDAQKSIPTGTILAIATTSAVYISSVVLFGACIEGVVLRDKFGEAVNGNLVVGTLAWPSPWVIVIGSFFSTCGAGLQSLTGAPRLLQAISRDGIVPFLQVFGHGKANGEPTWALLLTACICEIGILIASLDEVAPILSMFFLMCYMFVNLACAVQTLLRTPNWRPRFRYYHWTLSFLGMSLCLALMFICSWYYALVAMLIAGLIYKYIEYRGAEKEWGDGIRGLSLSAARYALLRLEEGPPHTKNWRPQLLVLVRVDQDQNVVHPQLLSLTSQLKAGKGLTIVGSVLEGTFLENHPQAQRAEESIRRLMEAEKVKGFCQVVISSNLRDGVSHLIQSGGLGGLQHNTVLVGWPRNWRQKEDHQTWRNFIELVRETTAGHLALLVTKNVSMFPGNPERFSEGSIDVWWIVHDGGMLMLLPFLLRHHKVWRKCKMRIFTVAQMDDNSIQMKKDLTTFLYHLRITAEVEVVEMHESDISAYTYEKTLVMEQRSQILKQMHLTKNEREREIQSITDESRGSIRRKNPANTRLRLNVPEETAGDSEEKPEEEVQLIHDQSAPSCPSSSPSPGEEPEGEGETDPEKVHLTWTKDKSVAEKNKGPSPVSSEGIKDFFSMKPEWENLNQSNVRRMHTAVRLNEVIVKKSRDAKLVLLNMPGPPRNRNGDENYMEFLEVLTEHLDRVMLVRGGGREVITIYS
Test: concentration-response of KCC2 transport modulators – cell-based, HEK293 KCC2, FluoZin-2 fluorescence, dose response (AID 1736)

[1] = inactive by the depositor's call

pEC50	pEC50 [1]	Compound
5.48	–	O=C(OCn1ncc(Cl)c(Cl)c1=O)c1ccc(F)cc1 [(4,5-dichloro-6-oxopyridazin-1-yl)methyl 4-fluorobenzoate]
–	2.97	CCc1ccc(OCC(=O)NNC(=O)CSc2ncnc3sc(C)c(C)c23)cc1 [(4-Ethyl-phenoxy)-acetic acid N'-[2-(5,6-dimethyl-thieno[2,3-d]pyrimidin-4-ylsulfanyl)-acetyl]-hydrazide]
6.41	–	CC(C)c1onc(C(=O)N2CCN(Cc3ccccc3)CC2)c1[N+](=O)[O-] [(4-benzylpiperazin-1-yl)-(4-nitro-5-propan-2-yl-1,2-oxazol-3-yl)methanone]
5.16	–	Cc1onc(C(=O)N2CCN(Cc3ccccc3)CC2)c1[N+](=O)[O-] [(4-benzylpiperazin-1-yl)-(5-methyl-4-nitro-1,2-oxazol-3-yl)methanone]
5.34	–	O=C(c1ccc(-c2ccccc2)cc1)C1CCCN(Cc2ccncc2)C1 (centres undefined) [(4-phenylphenyl)-[1-(4-pyridylmethyl)-3-piperidyl]methanone]
5.28	–	CCOC(=O)c1c(C)[nH]c(N=Nc2ccccc2)c1C [(5Z)-2,4-dimethyl-5-(phenylhydrazinylidene)-3-pyrrolecarboxylic acid ethyl ester]
2.79	–	CN1C(=O)/C(=C/c2ccccc2OCc2ccccc2)NC1=S [(5Z)-3-methyl-5-[(2-phenylmethoxyphenyl)methylidene]-2-sulfanylidene-4-imidazolidinone]
3.44	–	Oc1ccccc1CN=Nc1nc2ccccc2o1 [(6E)-6-[(1,3-benzoxazol-2-ylhydrazo)methylidene]-1-cyclohexa-2,4-dienone]
5.06	–	CCCCCN1C/C=C\C(c2ccc(OC)cc2)N(Cc2ccc(F)cc2)C(=O)C1 (centres undefined) [(6Z)-1-amyl-4-(4-fluorobenzyl)-5-(4-methoxyphenyl)-5,8-dihydro-2H-1,4-diazocin-3-one]
–	3.31	COc1cc(OC)c(C(=O)/C=C/c2ccccc2)c(O)c1O [(E)-1-(2,3-dihydroxy-4,6-dimethoxy-phenyl)-3-phenyl-prop-2-en-1-one]
5.01	–	O=C(/C=C/c1ccco1)N1CCC(Cc2ccccc2)CC1 [(E)-1-(4-benzylpiperidin-1-yl)-3-(furan-2-yl)prop-2-en-1-one]
–	5.84	N#C/C(=C\c1cn(-c2ccccc2)nc1-c1cccnc1)c1nnc2n1CCCCC2 [(E)-3-(1-phenyl-3-pyridin-3-yl-pyrazol-4-yl)-2-(6,7,8,9-tetrahydro-5H-[1,2,4]triazolo[4,3-a]azepin-3-yl)prop-2-enenitrile]
5.64	–	CC(C)CCNC(=O)COC(=O)/C=C/c1ccc2ccccc2n1 [(E)-3-(2-quinolinyl)-2-propenoic acid [2-(3-methylbutylamino)-2-oxoethyl] ester]
3.72	–	CC1Cc2ccccc2N1C(=O)/C=C/c1cccc(F)c1 (centres undefined) [(E)-3-(3-fluorophenyl)-1-(2-methyl-2,3-dihydroindol-1-yl)-2-propen-1-one]
6.41	–	COc1ccc(-c2nnc(S/C(=C/c3ccc(Cl)cc3)C(=O)O)o2)cc1 [(E)-3-(4-chlorophenyl)-2-[[5-(4-methoxyphenyl)-1,3,4-oxadiazol-2-yl]sulfanyl]prop-2-enoic acid]
6.39	–	O=C(O)/C=C/c1cn(Cc2ccccc2Cl)nc1-c1ccccc1 [(E)-3-[1-(2-chlorobenzyl)-3-phenyl-pyrazol-4-yl]acrylic acid]
3.46	–	O=C(O)CC/C(=C\c1ccccc1[N+](=O)[O-])c1nc2ccccc2s1 [(E)-4-(1,3-benzothiazol-2-yl)-5-(2-nitrophenyl)-4-pentenoic acid]
3.63	–	O=C(O)CC/C(=C\c1ccc(N2CCCC2)c([N+](=O)[O-])c1)c1nc2ccccc2s1 [(E)-4-(1,3-benzothiazol-2-yl)-5-(3-nitro-4-pyrrolidin-1-yl-phenyl)pent-4-enoic acid]
4.91	–	O=C(O)CC/C(=C\c1ccc(N2CCOCC2)c([N+](=O)[O-])c1)c1nc2ccccc2s1 [(E)-4-(1,3-benzothiazol-2-yl)-5-(4-morpholin-4-yl-3-nitro-phenyl)pent-4-enoic acid]
4.92	–	COc1ccccc1N1CCN(C(=S)NC(=O)/C=C/c2ccccc2)CC1 [(E)-N-[4-(2-Methoxy-phenyl)-piperazine-1-carbothioyl]-3-phenyl-acrylamide]
4.97	–	CC[C@H](CO)Nc1nc(Nc2cccc(Cl)c2)c2ncn(C(C)C)c2n1 [(R)-2-(6-(3-chlorophenylamino)-9-isopropyl-9H-purin-2-ylamino)butan-1-ol]
5.70	–	O=C(CNC(=O)/C(=C/c1ccccc1)NC(=O)c1ccc(Br)cc1)OCc1ccccc1 [(phenylmethyl) 2-[[(Z)-2-[(4-bromophenyl)carbonylamino]-3-phenyl-prop-2-enoyl]amino]ethanoate]

pEC50	pEC50 [1]	Compound
–	3.52	O=C(NC(=S)NNC(=O)c1ccccc1O)c1ccco1 [Furan-2-carboxylic acid [N'-(2-hydroxy-benzoyl)-hydrazinocarbothioyl]-amide]
5.16	–	Cc1ccc2c(c1)nnn2C1CCN(S(=O)(=O)c2cccc(S(=O)(=O)N(C)C)c2)CC1 [MLS000033642]
4.58	–	O=C(CSc1ncccc1-c1nc2ccccc2[nH]1)N1CCN(c2ccccc2F)CC1 [MLS000033700]
4.58	–	O=C(OC1CCc2ccccc2C1=O)c1ccccc1O (centres undefined) [MLS000051417]
4.61	–	Cc1nn(-c2nc3ccccc3[nH]2)c(N)c1-c1ccccc1 [MLS000063763]
5.81	–	Cc1nonc1NC(=O)CSc1ccc(-c2ccccc2)nn1 [MLS000074514]
1.39	–	O=C(NCc1cccs1)c1nc2c(nnn2Cc2ccc(F)cc2)c(=O)[nH]1 [MLS000074753]
5.43	–	CS(=O)(=O)N(CC(=O)N1CCN(c2ccccc2)CC1)c1cccc(Br)c1 [MLS000110474]
5.31	–	Cn1c(C(=O)NCCCN2CCN(c3ccccc3F)CC2)cc2c(=O)n(C)c3ccccc3c21 [MLS000118127]
5.76	–	Cn1c(C(=O)NCCN2CCN(c3ccccc3F)CC2)cc2c(=O)n(C)c3ccccc3c21 [MLS000118132]
5.52	–	CCN(CC)S(=O)(=O)c1ccc(NC(=O)CSc2ncnc3ccccc23)cc1 [MLS000393282]
4.76	–	CC1Cc2ccccc2N1C(=O)CN(C)S(=O)(=O)c1cccc2cccnc12 (centres undefined) [MLS000523063]
4.69	–	CS(=O)(=O)N(CC(=O)N1CCN(c2ccc(F)cc2)CC1)c1ccc(F)c(Cl)c1 [MLS000531433]
5.52	–	Cc1ccc(C(=O)Nc2nc(=O)n(C(=O)c3ccccc3Cl)s2)cc1 [MLS000540480]
7.97	–	O=C(NNc1nc(-c2ccccc2)cs1)c1ccccc1 [MLS000547345]
4.72	–	CCn1c(CCNC(=O)c2cccs2)nnc1SCC(=O)Nc1nc(-c2ccccc2)cs1 [MLS000548611]
4.81	–	O=[N+]([O-])c1ccccc1C=C[CH+][N-]n1c(-c2ccc(Cl)cc2)n[nH]c1=S [MLS000555506]
5.52	–	O=C(CC(Cc1ccccc1)c1ccco1)NC1CCCCC1 (centres undefined) [MLS000556612]
5.70	–	CC(=NNC(=O)c1ccc(Br)cc1)c1ccccc1 [MLS000558629]
–	4.39	O=C(NCCCCc1ccccc1)C1CC(c2ccccc2C(F)(F)F)=NO1 (centres undefined) [MLS000561910]
–	4.77	C[C@@H](C(=O)Nc1ccc2ccccc2c1)[C@@H]1C[C@@]1(C)[C@@H](NC(=O)c1cccnc1)c1ccccc1 [MLS000563527]
4.69	–	Cc1nn2c(nc(O)c3ccccc32)c1C=O [MLS000565386]
